In patent publication US8329617B2, “Compositions and methods for synergistic manipulation of plant and insect defenses” (Plant Bioscience Limited, priority 2007, dated 2012):

Columns and labels:
[1] = test system: B. tabaci; assay: B. tabaci pupae protein on cotton plants treated with PBO and/or microencapsulated cis-jasmone; assay type: in vivo, Bemisia tabaci; details: for Protein WF (Av): five cotton plants per treatment, 5 adult female whiteflies per plant, ~16 days
Experimental: (§1) A new method for the investigation of the development of whitefly to the pupal stage on tomatoes and cotton was used. […] These were checked for protein after ˜16 days using Bradford reagent.
(§2) Adults were added to the plant 2 h after treatment, and removed after 24 h. The eggs laid were then left for 16-18 days until they reached the pupal stage. The total pupal protein on the plant was tested using the Bradford reagent.

[2] = test system: esterase; details: topical application of 1 ul of 0.1% PBO
Experimental: The esterase activity of individuals from a clone of resistant Myzus persicae was measured at zero time, then at hourly intervals following in vivo topical application of 1 ul of 0.1% PBO. […] The assay would also be continued to determine the time taken for the esterase levels to return to normal.

[3] = test system: whitefly (B. tabaci); assay: Bioassay: B. tabaci pupae protein on cotton and tomato plants treated with BABA and/or PBO; assay type: in vivo, Bemisia tabaci; details: 3 mM BABA root drench, PBO E spray
Experimental: In all bioassay experiments the control plants were sprayed with deionised water. Initially seven treatments were used (Table 1b) to test all chemical variables. […] Analysis of protein in each treatment was conducted using Bradford Reagent: the data were analysed using the computer programme ‘GraFit’ (Erithacus software, Berkeley). To calculate the calibration curve a single logarithmic curve was used with regression analysis taking the values of the treatment wells (averages of the three readings taken: technical replicates). Laboratory tests were undertaken to compare effects of combined and single treatments of PBO and BABA on control of aphid (M. persicae) on potato, pepper, and black mustard and whitefly (B. tabaci) on cotton and tomato. All tests included untreated and blank (water) controls, and both single and combined applications of PBO and BABA. […] Adults were added to the plant 2 days after treatment, and removed after 24 h. The eggs laid were then left for 16-18 days until they reached the pupal stage. The total pupal protein on the plant was tested using the Bradford reagent.

[4] = test system: esterase
[5] = test system: Bemisia tabaci, GUA MIX; assay: Glasshouse simulator trial: B. tabaci pupae protein on tomato plants treated with cis-jasmone and PBO; assay type: in vivo; details: for μg (Av) Total Protein (B. tabaci pupae): simulator, ten tomato plants per treatment, ten adult whiteflies per plant, ~16 days
Experimental: (§3) In all bioassay experiments the control plants were sprayed with deionised water. Initially seven treatments were used (Table 1) to test all chemical variables. All treatments were applied hydraulically with a spray simulator after which the plants were separated according to treatment (with cis-jasmone controls being separated) and left for 2 hours prior to insect application.
Analysis of protein in each treatment was conducted using Bradford Reagent: the data were analysed using the computer programme ‘GraFit’ (Erithacus software, Berkeley). To calculate the calibration curve a single logarithmic curve was used with regression analysis taking the values of the treatment wells (averages of the three readings taken: technical replicates).
as §1, §2
As described above 10 adult females were released on to each tomato plant, ten/treatment and after ˜16 days pupae were removed using a scalpel blade. These were checked for total protein using Bradford reagent. Plants were put into glasshouse simulators (one/treatment) and kept at 28° C., 12 L: […] and 80% R.H.

[6] = test system: aphid (M. persicae); assay: Bioassay: M. persicae protein on potato, pepper and black mustard plants treated with BABA and/or PBO; assay type: in vivo, Myzus persicae; details: 3 adult apterous aphids per plant, 3 mM BABA root drench, PBO E spray, 7 days
Experimental: In all bioassay experiments the control plants were sprayed with deionised water. Initially seven treatments were used (Table 1b) to test all chemical variables. […] Analysis of protein in each treatment was conducted using Bradford Reagent: the data were analysed using the computer programme ‘GraFit’ (Erithacus software, Berkeley). To calculate the calibration curve a single logarithmic curve was used with regression analysis taking the values of the treatment wells (averages of the three readings taken: technical replicates). Laboratory tests were undertaken to compare effects of combined and single treatments of PBO and BABA on control of aphid (M. persicae) on potato, pepper, and black mustard and whitefly (B. tabaci) on cotton and tomato. All tests included untreated and blank (water) controls, and both single and combined applications of PBO and BABA. […] To investigate developmental/fecundity effects of BABA+/−PBO E (see Table 1) on Myzus persicae when applied to plants, adults were added to the plants and then using Bradford reagent, the amount of aphid protein present on the plants 7 days after treatment was measured. Esterase levels were also tested after the same interval to check for the possible induction of metabolic enzymes when using BABA. Aphids were brushed from all plants and each leaf checked individually to ensure none remained. The aphid mass for each treatment was weighed before total protein was assessed (total from all five plants in the treatment).

[7] = test system: Myzus persicae, US1L; assay: Bioassay: M. persicae protein on four pepper plants treated with cis-jasmone and PBO (1, 5 or 10 adults per plant); assay type: in vivo; details: for Av. Total Insect Protein μg: Bioassay, M. persicae (US1L), average of weeks 1 to 3; for μg (Av) Total Protein (M. persicae): four pepper plants, 7 days
Experimental: as §3
Analysis of protein in each treatment was conducted using Bradford Reagent: the data were analysed using the computer programme ‘GraFit’ (Erithacus software, Berkeley). To calculate the calibration curve a single logarithmic curve was used with regression analysis taking the values of the treatment wells (averages of the three readings taken: technical replicates). […]
To investigate developmental/fecundity effects of cis-jasmone+/−PBO E on Myzus persicae when applied to sweet peppers, one adult was added to the plants. Aphids were brushed from all plants and each leaf checked individually to ensure none remained. The aphid mass for each treatment was assessed for total protein (total from all four plants in the treatment) using Bradford reagent. The amount of aphid protein present on the plants 7 days after treatment was measured.
Myzus persicae was applied to sweet peppers at the rate of five adults were added per plant. Aphids were brushed from all plants and each leaf checked individually to ensure none remained. The aphid mass for each treatment was assessed for total protein (total from all four plants in the treatment) using Bradford reagent. The amount of aphid protein present on the plants 7 days after treatment was measured (for further information see Example 3).
Myzus persicae were applied to sweet peppers at the rate of ten adults per plant. Aphids were brushed from all plants and each leaf checked individually to ensure none remained. The aphid mass for each treatment was assessed for total protein (total from all four plants in the treatment) using Bradford reagent. The amount of aphid protein present on the plants 7 days after treatment was measured (for further information see Example 3).

SMILES: CCCCOCCOCCOCc1cc2c(cc1CCC)OCO2 [PBO, 2-(2-butoxyethoxy)ethyl 6-propylpiperonyl ether]
- effect of addition of PBO to microencapsulated cis-jasmone (in words) ([1]; B. tabaci on cotton): potentiates the effect of this new microencapsulated cis-jasmone
- Protein WF (Av) ([1]; week 1): 0.167 µg
- Protein WF (Av) ([1]; week 2): 0.16 µg
- Protein WF (Av) ([1]; week 3): 0.17 µg
- time delay for esterase inhibition ([2]; individual cotton bollworms): 5 h
- optimal time delay for esterase inhibition ([2]; individual whiteflies): 10 h
- Protein WF (Av) ([3]; cotton plants, ~16 days, week 1): 0.14 µg
- Protein WF (Av) ([3]; cotton plants, ~16 days, week 2): 0.14 µg
- Protein WF (Av) ([3]; cotton plants, ~16 days, week 3): 0.15 µg
- Protein WF (Av) ([3]; tomato plants, week 1): 0.23 µg
- Protein WF (Av) ([3]; tomato plants, week 2): 0.33 µg
- Protein WF (Av) ([3]; tomato plants, week 3): 0.32 µg
- optimal concentration of PBO for esterase inhibition [4]: 1000 ppm
- effect of addition of PBO to cis-jasmone on reduction of insect protein (in words) ([5]; B. tabaci on tomato, simulator trial): potentiates the effect of cis-jasmone
- Av. Total Insect Protein μg ([5]; Simulator, Bemisia tabaci (GUA MIX) on Tomato (Carousel), average of weeks 1 to 3): 0.156 µg
- μg (Av) Total Protein (B. tabaci pupae) ([5]; week 1): 0.165 µg
- μg (Av) Total Protein (B. tabaci pupae) ([5]; week 2): 0.169 µg
- μg (Av) Total Protein (B. tabaci pupae) ([5]; week 3): 0.134 µg
- Protein A (Av) ([6]; five black mustard plants, week 1): 19.30 µg
- Protein A (Av) ([6]; five black mustard plants, week 2): 18.90 µg
- Protein A (Av) ([6]; five black mustard plants, week 3): 18.00 µg
- Protein A (Av) ([6]; five pepper plants, week 1): 22.10 µg
- Protein A (Av) ([6]; five pepper plants, week 2): 21.60 µg
- Protein A (Av) ([6]; five pepper plants, week 3): 23.50 µg
- Protein A (Av) ([6]; five potato plants, week 1): 17.60 µg
- Protein A (Av) ([6]; five potato plants, week 2): 22.30 µg
- Protein A (Av) ([6]; five potato plants, week 3): 19.20 µg
- Av. Total Insect Protein μg ([7]; 1 adult/plant): 10.710 µg
- Av. Total Insect Protein μg ([7]; 5 adults/plant): 21.500 µg
- Av. Total Insect Protein μg ([7]; 10 adults/plant): 35.200 µg
- effect of addition of PBO to cis-jasmone on reduction of insect protein (in words) ([7]; M. persicae on pepper, five adults per plant): potentiates the effect of cis-jasmone
- reduction in total aphid protein (in words) ([7]; M. persicae on pepper, small scale assays, 10, 5 or 1 adult aphid per plant): no significant reduction
- μg (Av) Total Protein (M. persicae) ([7]; five adult apterous aphids per plant, week 1): 23.60 µg
- μg (Av) Total Protein (M. persicae) ([7]; five adult apterous aphids per plant, week 2): 17.29 µg
- μg (Av) Total Protein (M. persicae) ([7]; five adult apterous aphids per plant, week 3): 23.60 µg
- μg (Av) Total Protein (M. persicae) ([7]; one adult apterous aphid per plant, week 1): 13.64 µg
- μg (Av) Total Protein (M. persicae) ([7]; one adult apterous aphid per plant, week 2): 8.50 µg
- μg (Av) Total Protein (M. persicae) ([7]; one adult apterous aphid per plant, week 3): 10.01 µg
- μg (Av) Total Protein (M. persicae) ([7]; ten adult apterous aphids per plant, week 1): 38.91 µg
- μg (Av) Total Protein (M. persicae) ([7]; ten adult apterous aphids per plant, week 2): 33.2 µg
- μg (Av) Total Protein (M. persicae) ([7]; ten adult apterous aphids per plant, week 3): 33.5 µg
